Measurements taken from patent US6759396B1, “Compositions based on a synergistic mixture of at least one VDR ligand and a retinoid” (Centre International de Recherches Dermatalogiques Galderma …, priority 1995, dated 2004).

Key:
[1] = system: RARγ receptors relative to RARα receptors; assay: dissociation constants for RAR receptors (standard tests from cited references); format: binding, human; conditions: selectivity for RARγ relative to RARα
Method: The dissociation constants are determined by means of tests which are standard to those skilled in the art. These tests are described in particular in the following references: (1) “Selective Synthetic Ligands for Nuclear Retinoic Acid Receptor Subtypes” in RETINOIDS, Progress in Research and Clinical Applications, Chapter 19 (pp 261-267), Marcel Dekker Inc., published by Maria A. Livrea and Lester Packer; (2) “Synthetic Retinoids: Receptor Selectivity and Biological Activity” in Pharmacol. Skin, Basle, Karger, 1993, Volume 5, pp. 117-127; (3) “Selective Synthetic Ligands for Human Nuclear Retinoic Acid Receptors” in Skin Pharmacology, 1992, Vol. 5, pp. 57-65; (4) “Identification of Synthetic Retinoids with Selectivity for Human Nuclear Retinoic Acid Receptor-γ” in Biochemical and Biophysical Research Communications, Vol. 186, No. 2, July 1992, pp. 977-983; (5) “Selective High Affinity RAR-α or RAR-β Retinoic Acid Receptor Ligands” in Mol. Pharmacol., Vol. 40, pp. 556-562.
In an advantageous manner, the retinoids which are selective for the RARγ receptors relative to the RARα receptors have an RARα/RARγ dissociation constant ratio greater than or equal to 8.

keratinocytes = assay: keratinocyte proliferation, XTT assay (Cell proliferation kit II); format: cell-based
Method: The keratinocytes were obtained from a specimen of skin obtained from plastic surgery. They are used at the second passage. The cells are cultured at 37° C. in a humid atmosphere in the presence of 5% CO2 according to the method of Rheinwald and Green in the presence of 3T3 fibroblasts treated with mitomycin in MEM medium containing 10% (v/v) foetal calf serum (FCS), 0.4 μg/ml of hydrocortisone, 10 ng/ml of EGF (epidermal growth factor) and 10^−9 M chloleratoxin. The 3T3 cells are inoculated 24 h before the keratinocytes at a rate of 15,000 cells per cm^2. Next, the keratinocytes are inoculated at a rate of 4000 cells per cm^2. […] After culturing for 4 days, the cells are harvested in order to determine the proliferation. The cell proliferation is determined using a kit with the reference name “Cell proliferation kit II” (XTT assay) used according to the indications of the manufacturer (Boehringer, ref. 1465 05). It is expressed in absorbance units at 495 nm. The lower the value of the absorbance measured, the more the keratinocyte proliferation has been inhibited.

| SMILES | RARα/RARγ dissociation constant ratio [1] | synergism of inhibition on keratinocyte proliferation (keratinocytes; in combination with 1,25-dihydroxyvitamin D3, identical conditions) | inhibition on keratinocyte proliferation (keratinocytes; in combination with 1,25-dihydroxyvitamin D3, 4 days culture, FIGS. 1 and 2) |
| --- | --- | --- | --- |
| CC1(C)CCC(C)(C)c2cc(C(O)C#Cc3ccc(C(=O)O)c(O)c3)ccc21 (centres unmarked) [2-hydroxy-4-[3-hydroxy-3-(5,6,7,8-tetrahydro-5,5,8,8-tetramethyl-2-naphthyl)-1-propynyl]benzoic acid] | 36.6 | – | – |
| COc1ccc(-c2ccc3cc(C(=O)O)ccc3c2)cc1C12CC3CC(CC(C3)C1)C2 [6-[3-(1-adamantyl)-4-methoxyphenyl]-2-naphthoic acid] | 84.4 | – | – |
| CC1=C(/C=C/C(C)=C/C=C/C(C)=C/C(=O)O)C(C)(C)CCC1 [all-trans retinoic acid, reference compound] | – | No synergism | – |
| O=C(O)c1ccc2cc(-c3ccc(O)c(C45CC6CC(CC(C6)C4)C5)c3)ccc2c1 [compound 1, 6-[3-(1-adamantyl)-4-hydroxyphenyl]-2-naphthoic acid] | 8.5 | – | very good inhibition |
